Laboratory results: patent US20030215462A1, “Use of UGT inhibitors to increase bioavailability” (priority 2001, published 2003)
Several values for one entry are separate records, joined by “and”; a condition that tells them apart may be missing. Identical values can stand only once.

Legend:
[1] = tested on: T1, UGT enzymes of human liver microsomes; assay: Kinetic and Ki studies of inhibitors of 7-HFC glucuronidation in human liver microsomes; type: biochemical; settings: 7-HFC 20-500 μM; for Km: read-out: Km of 7-HFC glucuronidation (fit of the experiment with this inhibitor)
T1 construct: percentage of control metabolism, 7-HFC glucuronidation; percentage of control metabolism, 7-HFC glucuronidation

[2] = biological target: T2, UGT enzymes of human liver microsomes (Homo sapiens, UniProt P16662); assay: Inhibition of zidovudine glucuronidation in human liver microsomes; type: biochemical; settings: liver lot 062101
T2 construct: residual metabolism (percentage of control), zidovudine glucuronidation; other: liver lot 062101; residual metabolism (percentage of control), zidovudine glucuronidation; residual metabolism (percentage of control)
T2 sequence (P16662 1-529): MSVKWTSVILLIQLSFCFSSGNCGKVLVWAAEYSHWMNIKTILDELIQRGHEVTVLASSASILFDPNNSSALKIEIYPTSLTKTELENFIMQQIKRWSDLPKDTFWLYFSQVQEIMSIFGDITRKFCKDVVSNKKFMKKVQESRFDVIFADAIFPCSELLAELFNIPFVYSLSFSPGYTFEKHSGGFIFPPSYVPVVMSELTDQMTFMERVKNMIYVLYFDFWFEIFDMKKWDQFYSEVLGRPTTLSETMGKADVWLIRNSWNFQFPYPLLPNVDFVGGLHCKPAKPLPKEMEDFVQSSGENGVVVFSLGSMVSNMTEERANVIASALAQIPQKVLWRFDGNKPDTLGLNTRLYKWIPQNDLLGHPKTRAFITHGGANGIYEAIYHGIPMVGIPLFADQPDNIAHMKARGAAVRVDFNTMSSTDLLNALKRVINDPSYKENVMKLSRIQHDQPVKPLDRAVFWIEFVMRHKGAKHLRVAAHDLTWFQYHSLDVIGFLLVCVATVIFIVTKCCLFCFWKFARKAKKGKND
Experimental: Compounds were eluted using a binary solvent gradient system where solvent A was dilute phosphoric acid (pH 3) and solvent B was acetonitrile.
Standardized incubations utilized 500 μM zidovudine substrate, 1 mg/ml microsomal protein, 5 mM UDPGA and a 30 min incubation time. […] Int.

[3] = tested on: UGT enzymes of pooled human jejunum microsomes; assay: Inhibition of 2ME2 glucuronidation (MG1) in pooled human jejunum microsomes; type: biochemical; settings: jejunum HJ61, 2ME2 50 μM
From the text: Compounds were eluted using a binary solvent gradient system where solvent A was dilute phosphoric acid (pH 3) and solvent B was 80:20 acetonitrile-methanol. […] Detection was at 280 nm.

[4] = tested on: UGT enzymes of human liver microsomes; assay: Inhibition of raloxifene glucuronidation (G1, G2) in human liver microsomes; type: biochemical; settings: for % of control metabolism (SD, n = 3), raloxifene glucuronide G1 / % of control metabolism (SD, n = 3), raloxifene glucuronide G2: human liver microsomes 250 μg/ml, 15 min
From the text: Compounds were eluted using a binary solvent gradient system. […] Solvent B was methanol. […] Detection was at 280 nm.

[5] = tested on: T3, UGT enzymes of human liver microsomes; assay: Inhibition of labetalol glucuronidation (LG1, LG2) in human liver microsomes; type: biochemical; settings: labetalol 50 μM
T3 construct: residual metabolism (percentage of control), labetalol LG1; other: labetalol 50 μM; residual metabolism (percentage of control), labetalol LG1; residual metabolism (percentage of control), labetalol LG2; inhi

[6] = biological target: T4, UGT1A9 (Homo sapiens, UniProt O60656); assay: Inhibition of raloxifene glucuronidation by recombinant UGT1A9 Supersomes; settings: for activity at 15 min, 50 µM: human, Supersomes with recombinant human UGT1A9, pH 7.5, probe raloxifene 50 μM
T4 sequence (O60656 26-530): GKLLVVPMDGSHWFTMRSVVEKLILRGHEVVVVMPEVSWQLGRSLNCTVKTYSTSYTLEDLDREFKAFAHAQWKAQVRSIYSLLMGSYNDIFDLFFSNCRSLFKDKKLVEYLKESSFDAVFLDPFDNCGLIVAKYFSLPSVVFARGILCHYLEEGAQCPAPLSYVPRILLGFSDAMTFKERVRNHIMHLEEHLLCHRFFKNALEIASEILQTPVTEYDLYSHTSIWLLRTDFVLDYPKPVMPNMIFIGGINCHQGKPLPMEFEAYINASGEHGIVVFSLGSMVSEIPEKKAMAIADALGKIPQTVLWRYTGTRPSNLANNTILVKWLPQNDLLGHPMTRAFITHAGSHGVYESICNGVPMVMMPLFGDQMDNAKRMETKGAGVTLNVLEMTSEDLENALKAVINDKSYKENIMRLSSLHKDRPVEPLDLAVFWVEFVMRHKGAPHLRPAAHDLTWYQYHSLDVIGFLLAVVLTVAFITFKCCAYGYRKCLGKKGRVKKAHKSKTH
Experimental: Compounds were eluted using a binary solvent gradient system. Solvent A was water brought to pH 8 with NH4OH. Solvent B was methanol. Solvent flow rate was 1 ml/min and the column temperature was maintained at 50° C. Detection was at 280 nm. […] The system was then returned to the initial conditions and equilibrated for 3 min.

[7] = inhibitor 25 μM, raloxifene 50 μM
[8] = inhibitor 50 μM, raloxifene 50 μM
[9] = inhibitor 100 μM, raloxifene 50 μM
[10] = inhibitor 500 μM, raloxifene 50 μM
[11] = liver lot 032101, inhibitor 50 μM
[12] = liver lot 062101, inhibitor 50 μM
[13] = liver lot 083000, inhibitor 50 μM
[14] = raloxifene 50 μM, inhibitor 25 μM
[15] = raloxifene 50 μM, inhibitor 50 μM
[16] = raloxifene 50 μM, inhibitor 100 μM
[17] = inhibitor 10 μM, raloxifene 50 μM
[18] = raloxifene 50 μM, inhibitor 10 μM

What does the source list for O=C(O)c1cc(-c2ccc(F)cc2F)ccc1O [Diflunisal, reference compound]?
Vmax of 7-HFC glucuronidation (fit of the experiment with this inhibitor) [1]: 62 ± 4 nmol/min/mg; Km [1]: 92 ± 9 µM; residual metabolism (percentage of control), zidovudine glucuronidation ([2]; inhibitor 500 μM): 74 (2) %; residual metabolism (percentage of control), zidovudine glucuronidation ([2]; inhibitor 1000 μM): 43 (2) %; residual metabolism (% of control), 2ME2 MG1 ([3]; inhibitor 50 μM): 91 (1) %; residual metabolism (% of control), 2ME2 MG1 ([3]; inhibitor 100 μM): 82 (2) %; % of control metabolism (SD, n = 3), raloxifene glucuronide G1 [4, 7]: 63 (3) %; % of control metabolism (SD, n = 3), raloxifene glucuronide G1 [4, 8]: 43 (1) %; % of control metabolism (SD, n = 3), raloxifene glucuronide G1 [4, 9]: 30 (4) %; % of control metabolism (SD, n = 3), raloxifene glucuronide G1 [4, 10]: 6 (1) %; % of control metabolism (SD, n = 3), raloxifene glucuronide G2 [4, 7]: 66 (1) %; % of control metabolism (SD, n = 3), raloxifene glucuronide G2 [4, 8]: 45 (2) %; % of control metabolism (SD, n = 3), raloxifene glucuronide G2 [4, 9]: 34 (1) %; % of control metabolism (SD, n = 3), raloxifene glucuronide G2 [4, 10]: 7 (1) %; % of control metabolism, raloxifene G1 [4, 11]: 52 (1) %; % of control metabolism, raloxifene G2 [4, 11]: 54 (0) %; % of control metabolism, raloxifene G1 [4, 12]: 67 (2) %; % of control metabolism, raloxifene G2 [4, 12]: 57 (2) %; % of control metabolism, raloxifene G1 [4, 13]: 43 (1) %; % of control metabolism, raloxifene G2 [4, 13]: 45 (2) %; % of control metabolism, raloxifene G1 [4, 14]: 63 (3) %; % of control metabolism, raloxifene G2 [4, 14]: 66 (1) %; % of control metabolism, raloxifene G1 [4, 15]: 43 (1) %; % of control metabolism, raloxifene G2 [4, 15]: 45 (2) %; % of control metabolism, raloxifene G1 [4, 16]: 30 (4) %; % of control metabolism, raloxifene G2 [4, 16]: 34 (1) %; residual metabolism (percentage of control), labetalol LG1 ([5]; inhibitor 50 μM): 92 (4) %; residual metabolism (percentage of control), labetalol LG2 ([5]; inhibitor 50 μM): 80 (3) %; residual metabolism (percentage of control), labetalol LG1 ([5]; inhibitor 100 μM): 80 (6) % and 86 (5) %; residual metabolism (percentage of control), labetalol LG2 ([5]; inhibitor 100 μM): 70 (4) % and 73 (2) %

Which results are given for CCCCCCCCOC(=O)c1cc(O)c(O)c(O)c1 [Octyl gallate]?
Vmax of 7-HFC glucuronidation (fit of the experiment with this inhibitor) [1]: 57 ± 3 nmol/min/mg; Km [1]: 81 ± 7 µM; inhibition of raloxifene glucuronidation, in words ([6]; UGT1A9): very poor inhibitor; activity at 15 min, 50 µM ([6]; formation of glucuronide G1, % of control metabolism, raloxifene G1, UGT1A9, inhibitor 50 μM): 84%; activity at 15 min, 50 µM ([6]; formation of glucuronide G2, % of control metabolism, raloxifene G2, UGT1A9, inhibitor 50 μM): 70%; Inhibition of raloxifene glucuronidation, UGT1A9, second line per inhibitor (G2) ([6]; second line (G2, metabolite not given), inhibitor 50 μM, raloxifene 50 μM, 250 μg/ml Supersomes, 1 mM UDPGA, 15 min): 70 (4); residual metabolism (percentage of control), zidovudine glucuronidation ([2]; inhibitor 500 μM): 54 (3) %; residual metabolism (percentage of control), zidovudine glucuronidation ([2]; inhibitor 1000 μM): 17 (1) %; residual metabolism (% of control), 2ME2 MG1 ([3]; inhibitor 50 μM): 121 (7) %; residual metabolism (% of control), 2ME2 MG1 ([3]; inhibitor 100 μM): 58 (3) %; % of control metabolism (SD, n = 3), raloxifene glucuronide G1 [4, 17]: 68 (3) %; % of control metabolism (SD, n = 3), raloxifene glucuronide G1 [4, 7]: 48 (6) %; % of control metabolism (SD, n = 3), raloxifene glucuronide G1 [4, 8]: 37 (2) %; % of control metabolism (SD, n = 3), raloxifene glucuronide G1 [4, 9]: 31 (3) %; % of control metabolism (SD, n = 3), raloxifene glucuronide G2 [4, 17]: 75 (8) %; % of control metabolism (SD, n = 3), raloxifene glucuronide G2 [4, 7]: 59 (5) %; % of control metabolism (SD, n = 3), raloxifene glucuronide G2 [4, 8]: 46 (3) %; % of control metabolism (SD, n = 3), raloxifene glucuronide G2 [4, 9]: 52 (7) %; % of control metabolism, raloxifene G1 [4, 11]: 45 (1) %; % of control metabolism, raloxifene G2 [4, 11]: 59 (3) %; % of control metabolism, raloxifene G1 [4, 12]: 55 (5) %; % of control metabolism, raloxifene G2 [4, 12]: 45 (6) %; % of control metabolism, raloxifene G1 [4, 13]: 37 (2) %; % of control metabolism, raloxifene G2 [4, 13]: 46 (3) %; % of control metabolism, raloxifene G1 [4, 18]: 68 (3) %; % of control metabolism, raloxifene G2 [4, 18]: 75 (8) %; % of control metabolism, raloxifene G1 [4, 14]: 48 (6) %; % of control metabolism, raloxifene G2 [4, 14]: 59 (5) %; % of control metabolism, raloxifene G1 [4, 15]: 37 (2) %; % of control metabolism, raloxifene G2 [4, 15]: 46 (3) %; % of control metabolism, raloxifene G1 [4, 16]: 31 (3) %; % of control metabolism, raloxifene G2 [4, 16]: 52 (7) %
